The subject of the test is 171881-019-R-J1-PDC tumor spheroid viability. The experiment in a line: Anticancer human tumor 171881-019-R-J1-PDC patient-derived invasive breast carcinoma cell line growth inhibition [PI3K]. The note with it: spheroids with HUVEC and MSC; for viability, T/C: stronger effect = lower value. The text has this:
Combinatorial screen of targeted agents with the PI3K inhibitors inavolisib, alpelisib, duvelisib, and copanlisib in multi-cell type tumor spheroids
A high-throughput screen of multi-cell type tumor spheroids was designed to identify active combinations of targeted small molecules and PI3K pathway inhibitors. Complex spheroids include a stromal component modeled by human endothelial cells (HUVEC) and fibroblasts modeled by human mesenchymal stem cells (MSCs). The concentration ranges selected for each drug and investigational agent were based upon clinically achievable concentrations if the clinical Cmax of the agent was known.
Compounds. The drugs and investigational agents: inavolisib (NSC800729), alpelisib (NSC765974), duvelisib (NSC772469), copanlisib (NSC816437), ipatasertib (NSC767898), afuresertib (NSC778305), talazoparib (NSC767125), sapanisertib (NSC764658), selumetinib (NSC741078), tovorafenib (DAY101, NSC766906), vemurafenib (NSC761431), ravoxertinib (NSC781343), sotorasib (NSC818433), MRTX1133 (NSC 836407), abemaciclib (NSC 768073), palbociclib (NSC758247), venetoclax (NSC 766270), SY5609 (NSC837396), enzalutamide (NSC755605), and darolutamide (NSC825331), were obtained from the National Cancer Institute (NCI) Developmental Therapeutics Program Chemical Repository. The FDA-approved anticancer drug set is available from the NCI Developmental Therapeutics Program. […] The stock solutions were prepared in dimethyl sulfoxide (DMSO, Sigma-Aldrich, St. Louis, MO, cat. D2650) at 800-fold the tested concentration and stored at -70 degrees C prior to their use. All drugs and investigational agents were tested over a range starting from a high concentration at or near the clinical Cmax and decreasing in half-log increments. If the clinical Cmax for an agent had not been determined, the highest concentration tested was 10 microM.
Cell Culture. All cells were maintained in an incubator at 37 degrees C and 5% CO2 with 95% humidity. The PDC lines were cultured according to standard operating procedures established by the NCI PDMR (https://pdmr.cancer.gov/sops/default.htm). All PDCs were thawed and cultured in Matrigel-coated flasks prepared with a working solution of 1X Ham's F-12 nutrient mix, without supplementation (Invitrogen, Waltham, MA, cat. 11765054), 100 U/mL penicillin-streptomycin (Invitrogen, cat. 15140122), and 2.5% Matrigel (Corning Inc., Corning, NY, cat. 354248) for the first three passages. The 354836-022-R-J1-PDC, 475296-252-R-J1-PDC, and 997726-040-R-J2-PDC lines were cultured in 6A media, which includes advanced DMEM/F-12 (Thermo Fisher Scientific, cat. 12634028), 10 mM HEPES (Thermo Fisher Scientific, cat. 15630080), 1X GlutaMAX supplement (Thermo Fisher Scientific, cat. 35050061), 0.1 mg/mL primocin (InvivoGen, San Diego, CA, cat. ant-pm-2), 10% defined fetal bovine serum, heat inactivated (HyClone Laboratories Inc., Logan, UT, cat. SH30070.03HI), 50% L-WRN conditioned media (ATCC, cat. CRL-3276), 1.25 mM N-Acetyl-L-cysteine (Sigma-Aldrich, cat. A9165), 10 mM nicotinamide (Sigma-Aldrich, cat. N0636), 1X B-27 supplement (Thermo Fisher Scientific, cat. 17504044), 1X N-2 supplement (Thermo Fisher Scientific, cat. 17502048), and 10 microM Y-27632 dihydrochloride (Tocris Bioscience, Bristol, United Kingdom, cat. 1254). The 624824-186-R-J2-PDC line was cultured in 6C/Colon 1B media, which includes all 6A media components plus 50 ng/mL human EGF recombinant protein (Thermo Fisher Scientific, cat. PHG0311). […]

[1] abbreviates: compound alone, run of 05/08/2023.
Where [2] appears, read: compound alone, run of 05/09/2023.

Molecules are shown by their SMILES. Several values for one entry are separate records, joined by “and”; a condition that tells them apart may be missing. Equal entries are not always repeated.

One may read the viability, T/C as the result in the treated group divided by that in the control group, in per cent. For orientation: IC50 means the concentration needed to halve the response being measured.
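Also: spheroids exposed to compound for 7 days before viability read.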

As for `CC(=O)c1c(C)c2cnc(Nc3ccc(N4CCNCC4)cn3)nc2n(C2CCCC2)c1=O`, the viability, T/C reads like this: (compound 0.000316 µM) 91.8% [middle of 4 runs]; (compound 0.001 µM) 85.3% [middle of 4 runs]; (compound 0.00316 µM) 97% [middle of 4 runs]; (compound 0.01 µM) 99.2% [middle of 4 runs]; (compound 0.0316 µM) 108% [middle of 4 runs]; (compound 0.1 µM) 88.7% [middle of 4 runs]. Moreover, the IC50 (curve of compound) was greater than 100 nM.
Take `CC(C)NCC(C(=O)N1CCN(c2ncnc3c2C(C)CC3O)CC1)c1ccc(Cl)cc1` (stereo unspecified): the viability, T/C is 85.8% [middle of 4 runs] (compound 0.0316 µM); 76.4% [middle of 4 runs] (compound 0.1 µM); 57.3% (2×) and 54.7% and 53.9% (compound 0.316 µM); 27.4% [middle of 4 runs] (compound 1 µM); 17.1% [middle of 4 runs] (compound 3.16 µM); 9.96% [middle of 4 runs] (compound 10 µM). In addition, the IC50 (curve of compound) was 376 nM [middle of 4 runs].
On to `CC(C)n1nc(-c2ccc3oc(N)nc3c2)c2c(N)ncnc21`, for which the viability, T/C runs as follows: (compound 0.001 µM) 76.3% and 86.4% and 84.6% (2×); (compound 0.00316 µM) 78.9% [middle of 4 runs]; (compound 0.01 µM) 53.9% [middle of 4 runs]; (compound 0.0316 µM) 24% [middle of 4 runs]; (compound 0.1 µM) 3.78% [middle of 4 runs]. Further, the IC50 (curve of compound) is 11.9 nM [middle of 4 runs].
As for `CC(Nc1ccc2c(c1)OCCn1cc(N3C(=O)OCC3C(F)F)nc1-2)C(N)=O` (stereo unspecified), the viability, T/C (compound 0.00316 µM) is 94.1% [middle of 8 runs]; the viability, T/C (compound 0.01 µM) is 83.8% [middle of 8 runs]; the viability, T/C (compound 0.0316 µM) is 56.6% [middle of 8 runs]; the viability, T/C (compound 0.1 µM) is 40.9% [middle of 8 runs]; the viability, T/C (compound 0.316 µM) is 28% [middle of 8 runs]; the viability, T/C (compound 1 µM) was 21.4% [middle of 8 runs]. Further, the IC50 under setting [1] is 52.5 nM [middle of 8 runs].
Consider `CC(Nc1ncnc2nc[nH]c12)c1cc2cccc(Cl)c2c(=O)n1-c1ccccc1` (stereo unspecified), for which the viability, T/C (compound 0.0316 µM) is 90% [middle of 8 runs]; the viability, T/C (compound 0.1 µM) was 97.5% [middle of 8 runs]; the viability, T/C (compound 0.316 µM) was 99.2% [middle of 8 runs]; the viability, T/C (compound 1 µM) was 100% [middle of 8 runs]; the viability, T/C (compound 3.16 µM) was 87.8% [middle of 8 runs]; the viability, T/C (compound 10 µM) was 59.8% [middle of 8 runs]. The IC50 under setting [2] was greater than 10000 nM.
As to `CC1(C)CCC(CN2CCN(c3ccc(C(=O)NS(=O)(=O)c4ccc(NCC5CCOCC5)c([N+](=O)[O-])c4)c(Oc4cnc5[nH]ccc5c4)c3)CC2)=C(c2ccc(Cl)cc2)C1`, the viability, T/C is 90.2% [middle of 4 runs] (compound 0.0316 µM), 87.8% [middle of 4 runs] (compound 0.1 µM), 86.9% [middle of 4 runs] (compound 1 µM) and 63.4% [middle of 4 runs] (compound 3.16 µM).
`CCCS(=O)(=O)Nc1ccc(F)c(C(=O)c2c[nH]c3ncc(-c4ccc(Cl)cc4)cc23)c1F`: the viability, T/C reads like this: (compound 0.0316 µM) 91.5% [middle of 4 runs]; (compound 0.1 µM) 91.1% [middle of 4 runs]; (compound 0.316 µM) 101% (2×) and 103% and 90.9%; (compound 1 µM) 99.5% [middle of 4 runs]; (compound 3.16 µM) 89.8% [middle of 4 runs]; (compound 10 µM) 16.1% [middle of 4 runs]. The IC50 (curve of compound) is 5.64 µM [middle of 4 runs].
Consider `CCN1CCN(Cc2ccc(Nc3ncc(F)c(-c4cc(F)c5nc(C)n(C(C)C)c5c4)n3)nc2)CC1`, for which the viability, T/C was 98.7% [middle of 4 runs] (compound 0.00316 µM); 99.5% [middle of 4 runs] (compound 0.01 µM); 95.2% and 108% (2×) and 103% (compound 0.0316 µM); 107% [middle of 4 runs] (compound 0.1 µM); 115% [middle of 4 runs] (compound 0.316 µM); 122% [middle of 4 runs] (compound 1 µM). In addition, where the note is “curve of compound”, the 50% inhibitory concentration (IC50) was greater than 1000 nM.
Consider `COc1c(OCCCN2CCOCC2)ccc2c3n(c(=NC(=O)c4cnc(N)nc4)nc12)CCN3`, for which the viability, T/C (compound 0.00316 µM) is 69.1% [middle of 8 runs]; the viability, T/C (compound 0.01 µM) is 46.5% [middle of 8 runs]; the viability, T/C (compound 0.0316 µM) is 25.6% [middle of 8 runs]; the viability, T/C (compound 0.1 µM) was 7.84% [middle of 8 runs]; the viability, T/C (compound 0.316 µM) is 1.95% [middle of 8 runs]; the viability, T/C (compound 1 µM) is 1.25% [middle of 7 runs]. For the same compound, the IC50 under setting [2] was 8.74 nM [middle of 8 runs].
`C[C@@H](NC(=O)c1ncnc(N)c1Cl)c1ncc(C(=O)Nc2cc(C(F)(F)F)c(Cl)cn2)s1`: the viability, T/C is, setting by setting: (compound 0.0316 µM) 91.1% [middle of 4 runs]; (compound 0.1 µM) 89.8% [middle of 4 runs]; (compound 0.316 µM) 90.8% [middle of 4 runs]; (compound 1 µM) 83.6% [middle of 4 runs]; (compound 3.16 µM) 72.5% [middle of 4 runs]; (compound 10 µM) 49.5% [middle of 4 runs].
With `Cc1nc(NC(=O)N2CCCC2C(N)=O)sc1-c1ccnc(C(C)(C)C(F)(F)F)c1` (stereo unspecified), the viability, T/C by setting is: (compound 0.0316 µM) 89.2% [middle of 8 runs]; (compound 0.1 µM) 86.3% [middle of 8 runs]; (compound 0.316 µM) 57.4% [middle of 8 runs]; (compound 1 µM) 33.8% [middle of 8 runs]; (compound 3.16 µM) 14.5% [middle of 8 runs]; (compound 10 µM) 3.58% [middle of 7 runs]. The IC50 under setting [1] is 475 nM [middle of 7 runs].
For `Cn1cnc2c(F)c(Nc3ccc(Br)cc3Cl)c(C(=O)NOCCO)cc21`, the viability, T/C was 90.4% [middle of 4 runs] (compound 0.00949 µM); 83.8% [middle of 4 runs] (compound 0.03 µM); 80.9% [middle of 4 runs] (compound 0.0949 µM); 64.1% [middle of 4 runs] (compound 0.3 µM); 42.6% [middle of 4 runs] (compound 0.949 µM); 19% [middle of 4 runs] (compound 3 µM). For the same compound, under “curve of compound”, the IC50 was 653 nM [middle of 4 runs].
As to `Cn1ncnc1[C@H]1c2n[nH]c(=O)c3cc(F)cc(c23)N[C@@H]1c1ccc(F)cc1`, the viability, T/C is, setting by setting: (compound 0.000316 µM) 92.5% [middle of 4 runs]; (compound 0.001 µM) 93.2% [middle of 4 runs]; (compound 0.00316 µM) 97.5% [middle of 4 runs]; (compound 0.01 µM) 98.2% [middle of 4 runs]; (compound 0.0316 µM) 97.7% [middle of 4 runs]; (compound 0.1 µM) 87% [middle of 4 runs]. For the setting “curve of compound”, the IC50 is greater than 100 nM.

Source of the values: PubChem BioAssay AID1963986 (Molecular Pharmacology Branch, DTP, NCI, 2024).
